Assay results published in patent US20200016136A1 (VIIV HEALTHCARE UK (NO. 5) LIMITED, priority 2017, published 2020).
pEC50: −log10 of the molar value.

System: NL-RLuc virus (recombinant NL4-3 HIV with Renilla Luciferase gene)
Assay: Inhibition of HIV replication (NL-RLuc virus in MT-2 cells, luciferase readout)
Format: cell-based, Human immunodeficiency virus (HIV)
Conditions: MT2, 120 h
Method in brief: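 EC50 derived via median effect equation from at least 2 experiments, using luciferase expression as virus-growth readout. Replication-competent NL-RLuc reporter virus (nef partly replaced by Renilla luciferase) infected MT-2 cells with serial compound dilutions; 5-day incubation in RPMI 1640 plus 10% FBS.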

In order of falling pEC50:
1. CC1(C)CCN(Cc2nc(Cl)c([C@H](OC(C)(C)C)C(=O)O)c(N3CCC(C)(C)CC3)c2-c2ccc3c(c2)CCN(c2ncnc4c2oc2ncccc24)C3)CC1 [Example 114, (S)-2-(tert-Butoxy)-2-(2-chloro-4-(4,4-dimethylpiperidin-1-yl)-6-((4,4-dimethylpiperidin-1-yl)methyl)-5-(2-(pyrido[3′,2′:4,5]furo[3,2-d]pyrimidin-4-yl)-1,2,3,4-tetrahydroisoquinolin-6-yl)pyridin-3-yl)acetic Acid]  10.00
2. CC1(C)CCN(c2c(-c3ccc4c(c3)CCN(c3ncnc5c3oc3ncccc35)C4)cnc(Cl)c2[C@H](OC(C)(C)C)C(=O)O)CC1 [Example 92, (S)-2-(tert-Butoxy)-2-(2-chloro-4-(4,4-dimethylpiperidin-1-yl)-5-(2-(pyrido[3′,2′:4,5]furo[3,2-d]pyrimidin-4-yl)-1,2,3,4-tetrahydroisoquinolin-6-yl)pyridin-3-yl)acetic Acid]  9.22
3. Cc1nc(C)c([C@H](OC(C)(C)C)C(=O)O)c(N2CCC(C)(C)CC2)c1-c1ccc2c(c1)CCN(c1ccnc(N3C4CCC3COC4)n1)C2 [Example 31, (2S)-2-(tert-Butoxy)-2-[4-(4,4-dimethylpiperidin-1-yl)-2,6-dimethyl-5-[2-(2-{3-oxa-8-azabicyclo[3.2.1]octan-8-yl}pyrimidin-4-yl)-1,2,3,4-tetrahydroisoquinolin-6-yl]pyridin-3-yl]acetic Acid]  8.70
4. Cc1nc(-c2cnn(C)c2C)c(-c2ccc3c(c2)CCN(c2ncnc4c2oc2ccccc24)C3)c(N2CCC(C)(C)CC2)c1[C@H](OC(C)(C)C)C(=O)O [Example 13, (S)-2-(5-(2-(Benzofuro[3,2-d]pyrimidin-4-yl)-1,2,3,4-tetrahydroisoquinolin-6-yl)-6-(1,5-dimethyl-1H-pyrazol-4-yl)-4-(4,4-dimethylpiperidin-1-yl)-2-methylpyridin-3-yl)-2-(tert-butoxy)acetic Acid]  8.70
5. CC1(C)CCN(c2c(-c3ccc4c(c3)CCN(c3nccc(-c5cnccn5)n3)C4)cnc(Cl)c2[C@H](OC(C)(C)C)C(=O)O)CC1 [Example 153, (S)-2-(tert-Butoxy)-2-(2-chloro-4-(4,4-dimethylpiperidin-1-yl)-5-(2-(4-(pyrazin-2-yl)pyrimidin-2-yl)-1,2,3,4-tetrahydroisoquinolin-6-yl)pyridin-3-yl)acetic Acid]  8.70
6. Cc1nc(C)c([C@H](OC(C)(C)C)C(=O)O)c(N2CCC(C)(C)CC2)c1-c1ccc2c(c1)CCN(c1nccc(N3C[C@@H](C)O[C@@H](C)C3)n1)C2 [Example 28, (2S)-2-(tert-Butoxy)-2-[5-(2-{4-[(2R,6S)-2,6-dimethylmorpholin-4-yl]pyrimidin-2-yl}-1,2,3,4-tetrahydroisoquinolin-6-yl)-4-(4,4-dimethylpiperidin-1-yl)-2,6-dimethylpyridin-3-yl]acetic Acid]  8.70
7. Cc1nc(N2CCc3cc(-c4c(C)nc(C)c([C@H](OC(C)(C)C)C(=O)O)c4N4CCC(C)(C)CC4)ccc3C2)c2oc3ccccc3c2n1 [Example 128, (S)-2-(tert-Butoxy)-2-(4-(4,4-dimethylpiperidin-1-yl)-2,6-dimethyl-5-(2-(2-methylbenzofuro[3,2-d]pyrimidin-4-yl)-1,2,3,4-tetrahydroisoquinolin-6-yl)pyridin-3-yl)acetic Acid]  8.70
8. Cc1cccc(Cl)c1CN1CCc2cc(-c3c(NCCCN(C)C)nc(C)c([C@H](OC(C)(C)C)C(=O)O)c3N3CCC(C)(C)CC3)ccc2C1 [Example 9, (S)-2-(tert-Butoxy)-2-(5-(2-(2-chloro-6-methylbenzyl)-1,2,3,4-tetrahydroisoquinolin-6-yl)-6-((3-(dimethylamino)propyl)amino)-4-(4,4-dimethylpiperidin-1-yl)-2-methylpyridin-3-yl)acetic Acid]  8.70
9. Cc1nc(CO)c([C@H](OC(C)(C)C)C(=O)O)c(N2CCC(C)(C)CC2)c1-c1ccc2c(c1)CCN(c1ncnc3c1oc1ccccc13)C2 [Example 133, (S)-2-(5-(2-(Benzofuro[3,2-d]pyrimidin-4-yl)-1,2,3,4-tetrahydroisoquinolin-6-yl)-4-(4,4-dimethylpiperidin-1-yl)-2-(hydroxymethyl)-6-methylpyridin-3-yl)-2-(tert-butoxy)acetic Acid]  8.52
10. Cc1nc(C)c([C@H](OC(C)(C)C)C(=O)O)c(N2CCC(C)(C)CC2)c1-c1ccc2c(c1)CCN(c1ncnc(N3CCC(CCO)CC3)n1)C2 [Example 63, (S)-2-(tert-Butoxy)-2-(4-(4,4-dimethylpiperidin-1-yl)-5-(2-(4-(4-(2-hydroxyethyl)piperidin-1-yl)-1,3,5-triazin-2-yl)-1,2,3,4-tetrahydroisoquinolin-6-yl)-2,6-dimethylpyridin-3-yl)acetic Acid]  8.40
11. Cc1nc(C)c([C@H](OC(C)(C)C)C(=O)O)c(N2CCC(C)(C)CC2)c1-c1ccc2c(c1)CCN(c1cccc(F)n1)C2 [Example 94, (S)-2-(tert-Butoxy)-2-(4-(4,4-dimethylpiperidin-1-yl)-5-(2-(6-fluoropyridin-2-yl)-1,2,3,4-tetrahydroisoquinolin-6-yl)-2,6-dimethylpyridin-3-yl)acetic Acid]  8.40
12. CCC(C)(C)O[C@H](C(=O)O)c1c(C)nc(C)c(-c2ccc3c(c2)CCN(Cc2ccccc2C)C3)c1N1CCC(C)(C)CC1 [Example 90, (S)-2-(4-(4,4-Dimethylpiperidin-1-yl)-2,6-dimethyl-5-(2-(2-methylbenzyl)-1,2,3,4-tetrahydroisoquinolin-6-yl)pyridin-3-yl)-2-(tert-pentyloxy)acetic Acid]  8.40
13. Cc1nc(C)c([C@H](OC(C)(C)C)C(=O)O)c(N2CCC(C)(C)CC2)c1-c1ccc2c(c1)CCN(c1cc(N3CCCC(C)(C)C3)ncn1)C2 [Example 139, (S)-2-(tert-Butoxy)-2-(4-(4,4-dimethylpiperidin-1-yl)-5-(2-(6-(3,3-dimethylpiperidin-1-yl)pyrimidin-4-yl)-1,2,3,4-tetrahydroisoquinolin-6-yl)-2,6-dimethylpyridin-3-yl)acetic Acid]  8.40
14. CCOc1cc(N2CCc3cc(-c4c(C)nc(C)c([C@H](OC(C)(C)C)C(=O)O)c4N4CCC(C)(C)CC4)ccc3C2)ncn1 [Example 126, (S)-2-(tert-Butoxy)-2-(4-(4,4-dimethylpiperidin-1-yl)-5-(2-(6-ethoxypyrimidin-4-yl)-1,2,3,4-tetrahydroisoquinolin-6-yl)-2,6-dimethylpyridin-3-yl)acetic Acid]  8.30
15. Cc1nc(C)c([C@H](OC(C)(C)C)C(=O)O)c(N2CCC(C)(C)CC2)c1-c1ccc2c(c1)CCN(c1ccnc(N3C4COCC3COC4)n1)C2 [Example 34, (2S)-2-(tert-Butoxy)-2-[4-(4,4-dimethylpiperidin-1-yl)-5-[2-(2-{3,7-dioxa-9-azabicyclo[3.3.1]nonan-9-yl}pyrimidin-4-yl)-1,2,3,4-tetrahydroisoquinolin-6-yl]-2,6-dimethylpyridin-3-yl]acetic Acid]  8.30
16. Cc1nc(C)c([C@H](OC(C)(C)C)C(=O)O)c(N2CCC(C)(C)CC2)c1-c1ccc2c(c1)CCN(c1cc(N3CCC(CCO)CC3)ncn1)C2 [Example 121, (S)-2-(tert-Butoxy)-2-(4-(4,4-dimethylpiperidin-1-yl)-5-(2-(6-(4-(2-hydroxyethyl)piperidin-1-yl)pyrimidin-4-yl)-1,2,3,4-tetrahydroisoquinolin-6-yl)-2,6-dimethylpyridin-3-yl)acetic Acid]  8.05
17. Cc1nc(C)c([C@H](OC(C)(C)C)C(=O)O)c(N2CCC(C)(C)CC2)c1-c1ccc2c(c1)CCN(c1cc(N3CCC(C(C)(C)O)CC3)ncc1F)C2 [Example 104, (S)-2-(tert-Butoxy)-2-(4-(4,4-dimethylpiperidin-1-yl)-5-(2-(5-fluoro-2-(4-(2-hydroxypropan-2-yl)piperidin-1-yl)pyridin-4-yl)-1,2,3,4-tetrahydroisoquinolin-6-yl)-2,6-dimethylpyridin-3-yl)acetic Acid]  8.00
18. Cc1cccc(Cl)c1CN1CCc2cc(-c3c(O)nc(C)c([C@H](OC(C)(C)C)C(=O)O)c3N3CCC(C)(C)CC3)ccc2C1 [Example 1, (S)-2-(tert-Butoxy)-2-(5-(2-(2-chloro-6-methylbenzyl)-1,2,3,4-tetrahydroisoquinolin-6-yl)-4-(4,4-dimethylpiperidin-1-yl)-2-methyl-6-oxo-1,6-dihydropyridin-3-yl)acetic Acid]  8.00
19. COc1ccccc1-c1cc(N2CCc3cc(-c4c(C)nc(C)c([C@H](OC(C)(C)C)C(=O)O)c4N4CCC(C)(C)CC4)ccc3C2)ncn1 [Example 123, (S)-2-(tert-Butoxy)-2-(4-(4,4-dimethylpiperidin-1-yl)-5-(2-(6-(2-methoxyphenyl)pyrimidin-4-yl)-1,2,3,4-tetrahydroisoquinolin-6-yl)-2,6-dimethylpyridin-3-yl)acetic Acid]  7.96
20. Cc1nc(C)c([C@H](OC(C)(C)C)C(=O)O)c(N2CCC(C)(C)CC2)c1-c1ccc2c(c1)CCN(c1cc(N3CCN(C)CC3)ncn1)C2 [Example 129, (S)-2-(tert-Butoxy)-2-(4-(4,4-dimethylpiperidin-1-yl)-2,6-dimethyl-5-(2-(6-(4-methylpiperazin-1-yl)pyrimidin-4-yl)-1,2,3,4-tetrahydroisoquinolin-6-yl)pyridin-3-yl)acetic Acid]  7.92
21. CC1(C)CCN(c2c(-c3ccc4c(c3)CCN(c3ncnc5c3oc3ccccc35)C4)c(CNCCS(C)(=O)=O)nc(Cl)c2[C@H](OC(C)(C)C)C(=O)O)CC1 [Example 110, (S)-2-(5-(2-(Benzofuro[3,2-d]pyrimidin-4-yl)-1,2,3,4-tetrahydroisoquinolin-6-yl)-2-chloro-4-(4,4-dimethylpiperidin-1-yl)-6-(((2-(methylsulfonyl)ethyl)amino)methyl)pyridin-3-yl)-2-(tert-butoxy)acetic Acid]  6.96
22. Cc1nc(C)c([C@H](OC(C)(C)C)C(=O)O)c(N2CCC(C)(C)CC2)c1-c1ccc2c(c1)CCN(c1cc(C(=O)O)ncn1)C2 [Example 127, (S)-6-(6-(5-(tert-Butoxy(carboxy)methyl)-4-(4,4-dimethylpiperidin-1-yl)-2,6-dimethylpyridin-3-yl)-3,4-dihydroisoquinolin-2(1H)-yl)pyrimidine-4-carboxylic Acid]  5.89
